{"source": "paper PMC8587015", "about": "“AGSE: A Novel Grape Seed Extract Enriched for PP2A Activating Flavonoids That Combats Oxidative Stress and Promotes Skin Health” (Molecules, 2021)", "key": {"NHEK-UVB-TNFα": {"test_system": "NHEK-UVB-TNFα", "experiment": "UVB-induced TNFα release from NHEKs (ELISA)", "type": "cell-based, human", "description": "(§1) Primary normal human epidermal keratinocytes (NHEKs) and dermal fibroblasts (NHDFs) were purchased from ThermoFisher (Carlsbad, CA, USA) and cultured in EpiLife™ medium (NHEKs) supplemented with Human Keratinocyte Growth Supplement (HKGS) or DMEM (NHDFs) + 10% FBS. All cell types were seeded in plates with growth factor-supplemented medium for 24 h and later media was replaced with growth factor-depleted media for an additional 24 h before treatments and grown at normal conditions (5% CO2; 37 °C).\n(§2) Cells were pre-incubated for 2–6 h with test materials (1% v/v ethanol vehicle) in fresh growth factor-depleted media in triplicates. NHEKs were induced by 5 ng/mL TPA for 24 h or irradiated with 25 mJ/cm^2 (15 s) broadband 305–12 nm UVB (Daavlin; Bryan, OH, USA) without test materials and incubated for an additional 18 h. NHDFs were irradiated with 12.5 J/cm^2 UVA (350–12 nm; 40 min) and later incubated without test materials for an additional 18 h. Media supernatants were harvested after induction and used to measure levels of Interleukin-6 (IL-6), Interleukin-8 (IL-8), collagenase (pro-MMP1) or tumor necrosis factor-α (TNF-α) by sandwich ELISA kits (BD Biosciences; San Jose, CA, USA or R&D Systems; Minneapolis, MN, USA). Cells were subjected to viability tests by MTS reduction assay (Promega; Madison, WI, USA).\n(§3) Statistical significance was determined by ANOVA followed by a Dunnett multiple comparisons test using p-values less than 0.05 as a significant difference. For all biochemical measurements and cytokine levels, samples were assayed in triplicate. Cytokine dose–response curves were generated by fitting data with the Hill, three-parameter equation using the Sigma Plot software, from which the IC50 and maximum inhibition were determined."}, "[1]": {"biological_target": "T1, PME-1 (Protein phosphatase methylesterase 1) (Homo sapiens, UniProt Q9Y570)", "T1 sequence (Q9Y570 1-386)": "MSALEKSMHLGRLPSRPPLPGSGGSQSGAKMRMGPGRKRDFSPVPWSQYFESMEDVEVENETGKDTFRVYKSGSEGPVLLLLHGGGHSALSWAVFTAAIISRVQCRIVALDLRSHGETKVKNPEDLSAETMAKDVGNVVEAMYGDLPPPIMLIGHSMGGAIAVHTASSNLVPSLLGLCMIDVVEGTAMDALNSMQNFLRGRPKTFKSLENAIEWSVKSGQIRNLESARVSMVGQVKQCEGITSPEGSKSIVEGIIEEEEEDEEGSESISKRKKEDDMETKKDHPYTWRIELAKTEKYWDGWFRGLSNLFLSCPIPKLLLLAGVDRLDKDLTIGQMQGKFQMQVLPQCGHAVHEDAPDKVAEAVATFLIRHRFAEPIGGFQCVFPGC", "experiment": "Demethylation of PP2A by PME-1, radioactive filter binding assay", "type": "biochemical", "conditions": "GSE flavonoids / grape seed components; read-out: IC50, PP2A demethylation activity assay", "description": "[^3H]-labeled methylated PP2A AC dimer was prepared by incubating PP2A, LCMT1 and [^3H]-SAM (PerkinElmer; Waltham, MA, USA) in 50 mM MOPS-Na (pH 7.2), 5 mM MgCl2, and 1 mM DTT at room temperature for 1 h. Demethylation of PP2A by PME-1 (Protein phosphatase methylesterase 1) was measured using the radioactive filter binding assay format. 20 nM PME-1 was incubated for 15 min with extract or compound, then 20 nM of [^3H]-labeled methylated PP2A AC dimer was added. Reactions were run at room temperature for 30 min then applied to a 96-well filter plate (MilliporeSigma; Burlington, MA, USA.) containing 30% TCA where proteins were precipitated and separated from the excess of [^3H]-SAM by washing with 70% ethanol. [^3H]-incorporation was measured using TopCount NXT scintillation counter (PerkinElmer; Waltham, MA, USA). IC50 values were generated from dose–response curves using a four-parameter logistic curve fit in SigmaPlot (Systat Software, Inc., Palo Alto, CA, USA)."}, "NHDFs-UVA-IL-6": {"test_system": "NHDFs-UVA-IL-6", "experiment": "UVA-induced IL-6 release from NHDFs (ELISA)", "type": "cell-based, human", "description": "as §1, §2, §3"}, "NHEK-UVB-IL-8": {"test_system": "NHEK-UVB-IL-8", "experiment": "UVB-induced IL-8 release from NHEKs (ELISA)", "type": "cell-based, human", "description": "as §1, §2, §3"}, "[2]": {"experiment": "Cell-free antioxidant ABTS assay by metmyoglobin", "type": "biochemical", "source_text": "(§4) Radical scavenging antioxidant assay was estimated using the colorimetric antioxidant assay kit obtained from Cayman Chemical Company (Ann Arbor, MI, USA). ABTS (2, 2′-Azino-bis-[3-ehthylbenzthiazoline sulphonate]) was used as the chromogen, which changes into a colored monocation radical form (ABTS^•+) by metmyoglobin in the presence of hydrogen peroxide, and monitored by measuring absorption at 750 nm using a plate reader (Envision-PerkinElmer; Waltham, MA, USA). Antioxidant inhibition was calculated based on the discoloration of ABTS by serial concentrations of test compounds added simultaneously with myoglobin and hydrogen peroxide. NHDF cells were cultured in DMEM with 10% fetal bovine serum (FBS) and seeded into black wall 96-well plates and incubated for 24 h before treatment. Cells were pre-treated for 3 h with and without test compounds (0.01–3 µM final concentrations) and labeled with 50 µM of dichloro-dihydro-fluorescein diacetate (DCFH-DA). Total fluorescence (Excitation = 485 nm; Emission = 535 nm) was measured after cells were co-incubated for 20 min with 0.1 mM H2O2 and the test compounds. Cell protection against oxidative stress was calculated using the following formula: Cell protection (%) = [(test compound (%) − hydrogen peroxide-only (%))/([…] − untreated control (%))] × 100."}, "NHDFs intracellular ROS": {"test_system": "NHDFs intracellular ROS", "experiment": "Intracellular antioxidant assay (DCFH-DA) in NHDFs after H2O2 induction", "type": "cell-based, human", "conditions": "3 h pre-incubation", "source_text": "as §4"}, "NHEK-TPA-IL-8": {"test_system": "NHEK-TPA-IL-8", "experiment": "TPA-induced IL-8 release from NHEKs (ELISA)", "type": "cell-based, human", "conditions": "5 ng/mL TPA, 24 h", "description": "as §1\nCells were pre-incubated for 2–6 h with test materials (1% v/v ethanol vehicle) in fresh growth factor-depleted media in triplicates. NHEKs were induced by 5 ng/mL TPA for 24 h or irradiated with 25 mJ/cm^2 (15 s) broadband 305–12 nm UVB (Daavlin; Bryan, OH, USA) without test materials and incubated for an additional 18 h. NHDFs were irradiated with 12.5 J/cm^2 UVA (350–12 nm; 40 min) and later incubated without test materials for an additional 18 h. […]\nas §3, with “For all biochemical measurements and cytokine levels, samples were assayed in triplicate.” left out"}, "[3]": {"conditions": "Homo sapiens, NHEK, light or radiation study, UVB 25 mJ/cm^2"}}}
{"smiles": "COc1cc(/C=C/C(=O)O)ccc1O", "note": "[Ferulic acid]", "values": [{"measurement": "IC50 NHEK-UVB-TNFα", "setting": "NHEK-UVB-TNFα; UVB 25 mJ/cm^2", "result": "<0.01", "unit": "µg/mL"}, {"measurement": "IC50", "setting": "[1]", "result": "> 15", "unit": "µM"}, {"measurement": "IC50 NHDFs-UVA-IL-6", "setting": "NHDFs-UVA-IL-6; UVA 12.5 J/cm^2", "result": 0.01, "unit": "µg/mL"}, {"measurement": "IC50 NHEK-UVB-IL-8", "setting": "NHEK-UVB-IL-8; UVB 25 mJ/cm^2", "result": "<0.01", "unit": "µg/mL"}]}
{"smiles": "Cc1c(C)c2c(c(C)c1O)CC[C@@](C)(CCC[C@H](C)CCC[C@H](C)CCCC(C)C)O2", "note": "[Vitamin E, α-tocopherol]", "values": [{"measurement": "IC50, H2O2-induced free radical ROS production", "setting": "[2]", "result": 18.6, "unit": "µg/mL"}, {"measurement": "IC50", "setting": "NHDFs intracellular ROS; Homo sapiens, NHDF, read-out: IC50, intracellular oxidative stress", "result": "> 100", "unit": "µg/mL"}]}
{"smiles": "CC1=C(/C=C/C(C)=C/C=C/C(C)=C/C(=O)O)C(C)(C)CCC1", "note": "[ATRA, all-trans retinoic acid]", "values": [{"measurement": "IC50", "setting": "NHEK-UVB-TNFα; [3]", "result": "> 1", "unit": "µg/mL"}, {"measurement": "effect on UVB-induced TNFα release (in words)", "setting": "NHEK-UVB-TNFα; highest non-toxic dose tested", "result": "did not have any effect"}, {"measurement": "IC50", "setting": "NHDFs-UVA-IL-6; Homo sapiens, NHDF, light or radiation study, UVA 12.5 J/cm^2", "result": "> 1", "unit": "µg/mL"}, {"measurement": "effect on UVA-induced IL-6 release (in words)", "setting": "NHDFs-UVA-IL-6; highest non-toxic dose tested", "result": "did not have any effect"}, {"measurement": "IC50", "setting": "NHEK-UVB-IL-8; [3]", "result": "> 1", "unit": "µg/mL"}, {"measurement": "effect on UVB-induced IL-8 release (in words)", "setting": "NHEK-UVB-IL-8; highest non-toxic dose tested", "result": "did not have any effect"}]}
{"smiles": "C[C@H]1C[C@H]2[C@@H]3CCC4=CC(=O)C=C[C@]4(C)[C@@]3(F)[C@@H](O)C[C@]2(C)[C@@]1(O)C(=O)CCl", "note": "[Clobetasol]", "values": [{"measurement": "IC50 NHEK-TPA-IL-8", "setting": "NHEK-TPA-IL-8", "result": 0.0005, "unit": "ng/mL"}]}
{"smiles": "O=C1O[C@H]([C@@H](O)CO)C(O)=C1O", "note": "[Vitamin C]", "values": [{"measurement": "IC50 NHEK-UVB-TNFα", "setting": "NHEK-UVB-TNFα; UVB 25 mJ/cm^2", "result": ">10", "unit": "µg/mL"}, {"measurement": "IC50, H2O2-induced free radical ROS production", "setting": "[2]", "result": 10.1, "unit": "µg/mL"}, {"measurement": "IC50 NHDFs-UVA-IL-6", "setting": "NHDFs-UVA-IL-6; UVA 12.5 J/cm^2", "result": ">10", "unit": "µg/mL"}, {"measurement": "IC50, intracellular oxidative stress", "setting": "NHDFs intracellular ROS", "result": 0.6, "unit": "µg/mL"}, {"measurement": "IC50 NHEK-UVB-IL-8", "setting": "NHEK-UVB-IL-8; UVB 25 mJ/cm^2", "result": ">10", "unit": "µg/mL"}]}
